Test results from US20240277713A1 (Kadmon Corporation, LLC, priority 2022, published 2024).
Marks after values point to notes of the source that are not given here.

What was measured:
Sprague-Dawley rats [1] = experiment: Embryo-fetal developmental toxicity study in Sprague-Dawley rats (Example 3)
Experimental: For this study, a total of 140 time-mated female rats (approximately 8 to 10 weeks of age) were obtained from Charles River Laboratories, Raleigh, North Carolina, and acclimated from the time of arrival until the time of dosing on GD 6. During the acclimation period, the animals were observed twice daily with respect to general health and any signs of disease. All animals were given a detailed clinical examination and body weights were recorded prior to selection. […] Food consumption was collected during the acclimation period.
Animals received in-life and postmorten evaluations. […] All fetuses were given an external and visceral or skeletal examination.
Detailed clinical observations were made daily from GD 6 through 20 (4 hours±1 hour postdose on dosing days).
Food consumption for main study animals was measured and recorded on the corresponding body weight days and calculated for the same intervals.
The placentae were examined grossly.
The foci, if detected, were considered early resorptions, and data from this female were included in mean calculations

Sprague-Dawley rats [2] = experiment: Pilot prenatal developmental toxicity study in Sprague-Dawley rats (Example 1); assay type: in vivo, rat
Description: A total of 52 Sprague-Dawley (SD) rats were used in this study.
Observations of the animals included cageside assessments (twice daily), evaluation of clinical signs (daily from GD 6 through 20), body weights (at arrival—GD 2 or 3—and GD 6, 9, 12, 15, 18, and 20), food consumption (GD 6-20), and anatomical pathology including a uterine examination. […] All fetuses were given an external examination.

SMILES: CC(C)NC(=O)COc1cccc(-c2nc(Nc3ccc4[nH]ncc4c3)c3ccccc3n2)c1 [belumosudil, 2-{3-[4-(1H-indazol-5-ylamino)-2-quinazolinyl]phenoxy}-N-(propan-2-yl) acetamide]
- Scabbed area, Thoracic region, times observed/animals (Sprague-Dawley rats [1]; 50 mg base/kg/day, GD 6-20): 0/0
- Tail missing - portion, times observed/animals (Sprague-Dawley rats [1]; 50 mg base/kg/day, GD 6-20): 0/0
- Fetal Body Weight Females, % Difference From Control (Sprague-Dawley rats [1]; 150 mg base/kg/day): −7.7%
- Fetal Body Weight Genders Combined, % Difference From Control (Sprague-Dawley rats [1]; 150 mg base/kg/day): −7.3%
- Fetal Body Weight Males, % Difference From Control (Sprague-Dawley rats [1]; 150 mg base/kg/day): −8.0%
- Maternal Body Weight Change GD 6-9 (Sprague-Dawley rats [1]; 150 mg base/kg/day): −4.2^b g
- Maternal Body Weight Change GD 6-18 (Sprague-Dawley rats [1]; 150 mg base/kg/day): 55.4^b g
- Maternal Body Weight Change GD 6-20 (Sprague-Dawley rats [1]; 150 mg base/kg/day): 97.1^b g
- Maternal Body Weight Change GD 18-20 (Sprague-Dawley rats [1]; 150 mg base/kg/day): 41.8^b g
- Maternal Body Weight GD 9 (Sprague-Dawley rats [1]; 150 mg base/kg/day): 215.8^b g
- Maternal Body Weight GD 12 (Sprague-Dawley rats [1]; 150 mg base/kg/day): 232.1^b g
- Maternal Body Weight GD 15 (Sprague-Dawley rats [1]; 150 mg base/kg/day): 244.0^b g
- Maternal Body Weight GD 18 (Sprague-Dawley rats [1]; 150 mg base/kg/day): 275.3^b g
- Maternal Body Weight GD 20 (Sprague-Dawley rats [1]; 150 mg base/kg/day): 317.0^b g
- Maternal Food Consumption GD 6-9 (Sprague-Dawley rats [1]; 150 mg base/kg/day): 10.0^b
- Maternal Food Consumption GD 6-18 (Sprague-Dawley rats [1]; 150 mg base/kg/day): 15.4^b
- Maternal Food Consumption GD 6-20 (Sprague-Dawley rats [1]; 150 mg base/kg/day): 17.4^b
- Maternal Food Consumption GD 18-20 (Sprague-Dawley rats [1]; 150 mg base/kg/day): 29.4
- Mean Fetal Body Weight Females (Sprague-Dawley rats [1]; 150 mg base/kg/day): 3.72 g
- Mean Fetal Body Weight Genders Combined (Sprague-Dawley rats [1]; 150 mg base/kg/day): 3.82 g
- Mean Fetal Body Weight Males (Sprague-Dawley rats [1]; 150 mg base/kg/day): 3.91 g
- Adjusted Final Body Weight, Mean (Sprague-Dawley rats [1]; 150 mg base/kg/day (N = 20)): 252.7^b g
- Adjusted Weight Change From Day 6, Mean (Sprague-Dawley rats [1]; 150 mg base/kg/day (N = 20)): 32.8^b
- Final Body Weight, Mean (Sprague-Dawley rats [1]; 150 mg base/kg/day (N = 20)): 317.0^b g
- Gravid Uterine Weight, Mean (Sprague-Dawley rats [1]; 150 mg base/kg/day (N = 20)): 64.3 g
- Discharge, Brown, Vulva, times observed/animals (Sprague-Dawley rats [1]; 150 mg base/kg/day, GD 6-20): 4/4
- Discharge, Red, Vulva, times observed/animals (Sprague-Dawley rats [1]; 150 mg base/kg/day, GD 6-20): 1/1
- Ear/portion of ear missing, Ear/left, times observed/animals (Sprague-Dawley rats [1]; 150 mg base/kg/day, GD 6-20): 15/1
- Hair sparse, Abdominal region, times observed/animals (Sprague-Dawley rats [1]; 150 mg base/kg/day, GD 6-20): 0/0
- Hair sparse, Cervical region, times observed/animals (Sprague-Dawley rats [1]; 150 mg base/kg/day, GD 6-20): 0/0
- Hair sparse, Forefoot/left, times observed/animals (Sprague-Dawley rats [1]; 150 mg base/kg/day, GD 6-20): 27/3
- Hair sparse, Forefoot/right, times observed/animals (Sprague-Dawley rats [1]; 150 mg base/kg/day, GD 6-20): 23/3
- Hair sparse, Forelimb/left, times observed/animals (Sprague-Dawley rats [1]; 150 mg base/kg/day, GD 6-20): 14/2
- Hair sparse, Forelimb/right, times observed/animals (Sprague-Dawley rats [1]; 150 mg base/kg/day, GD 6-20): 30/3
- Hair sparse, Hind limb/left, times observed/animals (Sprague-Dawley rats [1]; 150 mg base/kg/day, GD 6-20): 6/1
- Hair sparse, Hind limb/right, times observed/animals (Sprague-Dawley rats [1]; 150 mg base/kg/day, GD 6-20): 6/1
- Hair sparse, Lumbar region, times observed/animals (Sprague-Dawley rats [1]; 150 mg base/kg/day, GD 6-20): 12/1
- Hair sparse, Thoracic region, times observed/animals (Sprague-Dawley rats [1]; 150 mg base/kg/day, GD 6-20): 12/2
- Scabbed area, Face, times observed/animals (Sprague-Dawley rats [1]; 150 mg base/kg/day, GD 6-20): 0/0
- Scabbed area, Forelimb/right, times observed/animals (Sprague-Dawley rats [1]; 150 mg base/kg/day, GD 6-20): 0/0
- Scabbed area, Tail, times observed/animals (Sprague-Dawley rats [1]; 150 mg base/kg/day, GD 6-20): 13/2
- Scabbed area, Thoracic region, times observed/animals (Sprague-Dawley rats [1]; 150 mg base/kg/day, GD 6-20): 0/0
- Tail missing - portion, times observed/animals (Sprague-Dawley rats [1]; 150 mg base/kg/day, GD 6-20): 11/1
- NOAEL for fetal developmental toxicity (Sprague-Dawley rats [1]; pregnant rats): 50 mg base/kg/day
- NOAEL for maternal toxicity (Sprague-Dawley rats [1]; pregnant rats): 15 mg base/kg/day
- mortality (Sprague-Dawley rats [1]; rat, in vivo): No treatment related mortality
- Mean post-implantation loss (Sprague-Dawley rats [2]; 25 mg base/kg/day): 4.00 % per litter
- Mean viable litter size (Sprague-Dawley rats [2]; 25 mg base/kg/day): 13.2
- combined mean fetal body weight (males and females) (Sprague-Dawley rats [2]; 25 mg base/kg/day): 4.37 g
- mean fetal body weight (female fetuses) (Sprague-Dawley rats [2]; 25 mg base/kg/day): 4.19 g
- Mean post-implantation loss (Sprague-Dawley rats [2]; 50 mg base/kg/day): 11.62 % per litter
- Mean viable litter size (Sprague-Dawley rats [2]; 50 mg base/kg/day): 11.6
- combined mean fetal body weight (males and females) (Sprague-Dawley rats [2]; 50 mg base/kg/day): 4.50 g
- litter incidence of external fetal malformations (Sprague-Dawley rats [2]; 50 mg base/kg/day): 40%
- mean fetal body weight (female fetuses) (Sprague-Dawley rats [2]; 50 mg base/kg/day): 4.39 g
- Mean post-implantation loss (Sprague-Dawley rats [2]; 150 mg base/kg/day): 4.51 % per litter
- Mean viable litter size (Sprague-Dawley rats [2]; 150 mg base/kg/day): 12.2
- combined mean fetal body weight (males and females) (Sprague-Dawley rats [2]; 150 mg base/kg/day): 4.22 g
- litter incidence of external fetal malformations (Sprague-Dawley rats [2]; 150 mg base/kg/day): 20%
- maternal toxicity (Sprague-Dawley rats [2]; 150 mg base/kg/day): moderate
- mean body weights (Sprague-Dawley rats [2]; 150 mg base/kg/day): reduced throughout gestation
- mean fetal body weight (female fetuses) (Sprague-Dawley rats [2]; 150 mg base/kg/day): 4.18 g
- Mean post-implantation loss (Sprague-Dawley rats [2]; 300 mg base/kg/day): 24.51 % per litter
- Mean viable litter size (Sprague-Dawley rats [2]; 300 mg base/kg/day): 10.0
- clinical signs (Sprague-Dawley rats [2]; 300 mg base/kg/day): unkempt and/or thin appearance, and hunched posture
- combined mean fetal body weight (males and females) (Sprague-Dawley rats [2]; 300 mg base/kg/day): 3.42 g
- litter incidence of external fetal malformations (Sprague-Dawley rats [2]; 300 mg base/kg/day): 25%
- maternal, embryo, and fetal toxicity (Sprague-Dawley rats [2]; 300 mg base/kg/day): excessive
- mean body weight values, body weight gains and food consumption (Sprague-Dawley rats [2]; 300 mg base/kg/day): adversely affected at every interval
- mean fetal body weight (female fetuses) (Sprague-Dawley rats [2]; 300 mg base/kg/day): 3.34 g
- maternal toxicity (Sprague-Dawley rats [2]; 25 and 50 mg base/kg/day): slight
- mean body weight gains and food consumption (Sprague-Dawley rats [2]; 25 and 50 mg base/kg/day, GD 6-9, 6-18, 6-20): slightly reduced
- maternal necropsy findings (Sprague-Dawley rats [2]; any treated group): No adverse maternal necropsy findings
- doses at which fetal malformations were observed (absence of anus and tail, omphalocele, dome shaped head) (Sprague-Dawley rats [2]; pilot study, pregnant rats, oral): ≥ 50 mg/kg/day
